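Each compound was tested at five concentrations against cells in 96-well plates for 48 hours. TGI marks complete inhibition of growth.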
Tests used:
Assay in all cases: inhibition of tumour cell growth, NCI panel, 48 h
786-0 renal = test system: 786-0 renal
A498 renal = test system: A498 renal
A549 NSCLC = test system: A549 NSCLC
ACHN renal = test system: ACHN renal
BT-549 breast = test system: BT-549 breast
CAKI-1 renal = test system: CAKI-1 renal
CCRF-CEM leukemia = test system: CCRF-CEM leukemia
COLO 205 colon = test system: COLO 205 colon
DU-145 prostate = test system: DU-145 prostate
EKVX NSCLC = test system: EKVX NSCLC
HCT-116 colon = test system: HCT-116 colon
HCT-15 colon = test system: HCT-15 colon
HL-60(TB) leukemia = test system: HL-60(TB) leukemia
HOP-62 NSCLC = test system: HOP-62 NSCLC
HOP-92 NSCLC = test system: HOP-92 NSCLC
HS 578T breast = test system: HS 578T breast
HT29 colon = test system: HT29 colon
IGROV1 ovarian = test system: IGROV1 ovarian
K-562 leukemia = test system: K-562 leukemia
KM12 colon = test system: KM12 colon
LOX IMVI melanoma = test system: LOX IMVI melanoma
M14 melanoma = test system: M14 melanoma
MALME-3M melanoma = test system: MALME-3M melanoma
MCF7 breast = test system: MCF7 breast
MDA-MB-231 breast = test system: MDA-MB-231 breast
MDA-MB-435 = test system: MDA-MB-435
MDA-N = test system: MDA-N
MOLT-4 leukemia = test system: MOLT-4 leukemia
NCI-H226 lung = test system: NCI-H226 lung
NCI-H23 lung = test system: NCI-H23 lung
NCI-H460 lung = test system: NCI-H460 lung
NCI-H522 lung = test system: NCI-H522 lung
NCI/ADR-RES ovarian = test system: NCI/ADR-RES ovarian
OVCAR-3 ovarian = test system: OVCAR-3 ovarian
OVCAR-4 ovarian = test system: OVCAR-4 ovarian
OVCAR-5 ovarian = test system: OVCAR-5 ovarian
OVCAR-8 ovarian = test system: OVCAR-8 ovarian
PC-3 prostate = test system: PC-3 prostate
RPMI-8226 leukemia = test system: RPMI-8226 leukemia
RXF 393 renal = test system: RXF 393 renal
SF-268 CNS = test system: SF-268 CNS
SF-295 CNS = test system: SF-295 CNS
SF-539 CNS = test system: SF-539 CNS
SK-MEL-2 melanoma = test system: SK-MEL-2 melanoma
SK-MEL-28 melanoma = test system: SK-MEL-28 melanoma
SK-MEL-5 melanoma = test system: SK-MEL-5 melanoma
SK-OV-3 ovarian = test system: SK-OV-3 ovarian
SN12C renal = test system: SN12C renal
SNB-19 CNS = test system: SNB-19 CNS
SNB-75 CNS = test system: SNB-75 CNS
SR leukemia = test system: SR leukemia
SW-620 colon = test system: SW-620 colon
T-47D breast = test system: T-47D breast
TK-10 renal = test system: TK-10 renal
U251 CNS = test system: U251 CNS
UACC-257 melanoma = test system: UACC-257 melanoma
UACC-62 melanoma = test system: UACC-62 melanoma
UO-31 renal = test system: UO-31 renal

Measured: TGI

NC(=S)N/N=C/c1c[nH]c2ccccc12
> 100 µM: 786-0 renal | A498 renal | A549 NSCLC | ACHN renal | BT-549 breast | CAKI-1 renal | CCRF-CEM leukemia | COLO 205 colon | DU-145 prostate | EKVX NSCLC | HCT-116 colon | HCT-15 colon | HL-60(TB) leukemia | HOP-62 NSCLC | HOP-92 NSCLC | HS 578T breast | HT29 colon | IGROV1 ovarian | K-562 leukemia | KM12 colon | LOX IMVI melanoma | M14 melanoma | MALME-3M melanoma | MCF7 breast | MDA-MB-231 breast | MDA-MB-435 | MDA-N | MOLT-4 leukemia | NCI-H226 lung | NCI-H23 lung | NCI-H460 lung | NCI-H522 lung | NCI/ADR-RES ovarian | OVCAR-3 ovarian | OVCAR-4 ovarian | OVCAR-5 ovarian | OVCAR-8 ovarian | PC-3 prostate | RPMI-8226 leukemia | RXF 393 renal | SF-268 CNS | SF-295 CNS | SF-539 CNS | SK-MEL-2 melanoma | SK-MEL-28 melanoma | SK-MEL-5 melanoma | SK-OV-3 ovarian | SN12C renal | SNB-19 CNS | SNB-75 CNS | SR leukemia | SW-620 colon | T-47D breast | TK-10 renal | U251 CNS | UACC-257 melanoma | UACC-62 melanoma | UO-31 renal

COc1ccc2c3c1O[C@H]1[C@@H](O)CC[C@@]4(O)[C@@H](C2)N(C)CC[C@]314
> 100 µM: 786-0 renal | A498 renal | A549 NSCLC | ACHN renal | BT-549 breast | CAKI-1 renal | CCRF-CEM leukemia | COLO 205 colon | DU-145 prostate | EKVX NSCLC | HCT-116 colon | HCT-15 colon | HL-60(TB) leukemia | HOP-62 NSCLC | HOP-92 NSCLC | HS 578T breast | HT29 colon | IGROV1 ovarian | K-562 leukemia | KM12 colon | LOX IMVI melanoma | M14 melanoma | MALME-3M melanoma | MCF7 breast | MDA-MB-231 breast | MDA-MB-435 | MDA-N | MOLT-4 leukemia | NCI-H226 lung | NCI-H23 lung | NCI-H522 lung | NCI/ADR-RES ovarian | OVCAR-3 ovarian | OVCAR-4 ovarian | OVCAR-5 ovarian | OVCAR-8 ovarian | PC-3 prostate | RPMI-8226 leukemia | SF-268 CNS | SF-295 CNS | SF-539 CNS | SK-MEL-2 melanoma | SK-MEL-28 melanoma | SK-MEL-5 melanoma | SK-OV-3 ovarian | SN12C renal | SNB-19 CNS | SR leukemia | SW-620 colon | T-47D breast | TK-10 renal | U251 CNS | UACC-257 melanoma | UACC-62 melanoma | UO-31 renal

Source: PubChem BioAssay (NCI)
